Source: ChEMBL document CHEMBL1201862, “PubChem BioAssay data set” (2004)
Calls of active or inactive are those of the source.

Tests used:
[1] = tested on: HeLa; test: ATP-based viability loss in HeLa cells – cell-based, CellTiter-Glo luminescence, cherry-pick samples, cytotoxicity control for MITF activator project, dose response (AID 540259); type: functional; details: Homo sapiens
[2] = tested on: A-375; test: proliferation inhibition in MITF-low A375 cells – cell-based, cherry-pick samples, set 2, counter-screen for MITF modulator project, dose response (AID 540335); type: functional; details: Homo sapiens
[3] = tested on: A-375; test: MITF: Counter assay: A375 proliferation Measured in Cell-Based System Using Plate Reader - 2084-03_Inhibitor_Dose_DryPowder_Activity. [Related pubchem assays (depositor defined):AID488944]; type: functional; details: Homo sapiens
[4] = target: Cytochrome P450 2D6 (Homo sapiens, UniProt P10635);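 also: CYP2D6 member of a cytochrome P450 panel assay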
[5] = tested on: Escherichia coli; test: microbe, parasite or virus in culture
[6] = target: T1, Mannose-6-phosphate isomerase (Homo sapiens, UniProt P34949); test: MPI inhibition at elevated mannose 6-phosphate – biochemical, fluorescence intensity, high mannose 6-phosphate, primary screen (AID 1220)
T1 sequence (P34949 whole entry): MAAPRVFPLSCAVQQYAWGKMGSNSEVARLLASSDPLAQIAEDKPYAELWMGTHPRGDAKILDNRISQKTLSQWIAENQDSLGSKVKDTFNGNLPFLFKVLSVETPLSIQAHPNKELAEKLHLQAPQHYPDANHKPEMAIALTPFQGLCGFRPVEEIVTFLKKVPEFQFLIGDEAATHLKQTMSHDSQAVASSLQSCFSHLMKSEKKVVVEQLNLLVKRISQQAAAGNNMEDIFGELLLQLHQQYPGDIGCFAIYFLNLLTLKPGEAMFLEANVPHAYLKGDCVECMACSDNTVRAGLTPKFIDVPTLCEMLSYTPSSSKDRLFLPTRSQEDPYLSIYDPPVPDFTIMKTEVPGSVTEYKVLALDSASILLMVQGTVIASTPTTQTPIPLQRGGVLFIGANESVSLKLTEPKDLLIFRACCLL

[7] = target: Glucose-6-phosphate 1-dehydrogenase (Homo sapiens, UniProt P11413); test: inhibition of Homo sapiens G6PD, dose series – biochemical, fluorescence, selectivity assay for P. falciparum G6PD inhibitor project, dose response (AID 504792); type: functional
[8] = target: T1, Mannose-6-phosphate isomerase; test: phosphomannose isomerase inhibition – biochemical, fluorescence intensity, confirmation (AID 1535)
[9] = target: Cytochrome P450 2C19 (Homo sapiens, UniProt P33261); test: Cytochrome panel assay with activity outcomes. Panel member name: p450-cyp2c19 Compounds with AC50 equal or less than 10 uM are considered active; type: functional
[10] = target: T2, Cytochrome P450 3A4 (Homo sapiens, UniProt P08684);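 also: CYP3A4 tested as one member of a cytochrome P450 panel screen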
[11] = target: T3, Type-1 angiotensin II receptor (Homo sapiens, UniProt P30556); test: agonist activity at AGTR1 – cell-based, uHTS hits, selectivity assay for APJ receptor agonist project, dose response (AID 488865); type: functional;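 also: beta-arrestin recruitment to AT1 measured by enzyme fragment complementation luminescence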
T3 sequence (P30556 whole entry): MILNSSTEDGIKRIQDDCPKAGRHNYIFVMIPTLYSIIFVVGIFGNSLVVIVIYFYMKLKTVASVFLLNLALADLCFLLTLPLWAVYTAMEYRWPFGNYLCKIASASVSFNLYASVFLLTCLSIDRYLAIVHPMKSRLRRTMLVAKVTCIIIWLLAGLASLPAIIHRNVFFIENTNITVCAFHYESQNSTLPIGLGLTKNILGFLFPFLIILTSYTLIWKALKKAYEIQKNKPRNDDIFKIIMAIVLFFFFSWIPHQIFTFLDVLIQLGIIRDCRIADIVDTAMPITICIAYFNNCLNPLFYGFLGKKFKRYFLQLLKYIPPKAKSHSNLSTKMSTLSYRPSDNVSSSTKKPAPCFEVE

[12] = target: UDP-galactopyranose mutase (Mycobacterium tuberculosis, UniProt P9WIQ1); test: Inhibitors of Mycobacterium tuberculosis UDP-galactopyranose mutase (UGM) enzyme Measured in Biochemical System Using Plate Reader - 2105-02_Inhibitor_Dose_CherryPick_Activity. [Related pubchem assays (depositor defined):AID504439]
[13] = target: T4, Corticotropin-releasing factor receptor 2/Corticotropin-releasing factor-binding protein (Homo sapiens, UniProt P24387+Q13324); test: activators of CRF receptor 2 with binding protein – uHTS hits, confirmation (AID 602473); type: functional; details: read-out: EC50_Mean
T4 sequence (Q13324 whole entry): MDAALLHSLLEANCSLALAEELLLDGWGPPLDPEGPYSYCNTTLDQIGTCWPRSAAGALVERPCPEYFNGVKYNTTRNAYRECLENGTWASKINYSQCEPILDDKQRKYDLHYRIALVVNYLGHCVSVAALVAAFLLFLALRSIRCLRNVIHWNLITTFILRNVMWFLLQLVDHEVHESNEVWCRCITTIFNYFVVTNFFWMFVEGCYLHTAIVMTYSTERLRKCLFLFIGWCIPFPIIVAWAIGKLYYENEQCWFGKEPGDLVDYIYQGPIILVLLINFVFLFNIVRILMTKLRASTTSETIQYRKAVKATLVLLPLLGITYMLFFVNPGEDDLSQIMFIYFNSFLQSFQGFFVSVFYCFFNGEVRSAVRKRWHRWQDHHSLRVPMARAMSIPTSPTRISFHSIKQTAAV
T4 sequence (P24387 whole entry): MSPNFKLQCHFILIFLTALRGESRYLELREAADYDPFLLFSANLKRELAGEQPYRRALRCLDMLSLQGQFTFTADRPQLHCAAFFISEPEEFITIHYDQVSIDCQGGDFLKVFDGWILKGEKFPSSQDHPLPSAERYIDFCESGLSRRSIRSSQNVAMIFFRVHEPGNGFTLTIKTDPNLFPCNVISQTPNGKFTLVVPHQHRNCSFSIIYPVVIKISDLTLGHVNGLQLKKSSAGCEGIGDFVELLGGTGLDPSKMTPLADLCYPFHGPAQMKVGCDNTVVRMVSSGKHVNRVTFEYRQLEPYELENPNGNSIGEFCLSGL

[14] = viability inhibitors of stage V gametocytes – luminescence, dose response (AID 1117278); type: functional, cell-based;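 also: gametocytes exposed to compound for 24 hours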
[15] = viability loss in human Jurkat cells – cell-based, luminescence, cytotoxicity control for P. falciparum gametocyte viability project, dose response (AID 1117277); type: functional;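 also: potency reflects loss of cellular ATP meaning fewer viable cells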
[16] = target: T5, Estrogen receptor (Homo sapiens, UniProt P03372);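 also: potency for inhibiting coactivator peptide recruitment to the receptor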
T5 sequence (P03372 whole entry): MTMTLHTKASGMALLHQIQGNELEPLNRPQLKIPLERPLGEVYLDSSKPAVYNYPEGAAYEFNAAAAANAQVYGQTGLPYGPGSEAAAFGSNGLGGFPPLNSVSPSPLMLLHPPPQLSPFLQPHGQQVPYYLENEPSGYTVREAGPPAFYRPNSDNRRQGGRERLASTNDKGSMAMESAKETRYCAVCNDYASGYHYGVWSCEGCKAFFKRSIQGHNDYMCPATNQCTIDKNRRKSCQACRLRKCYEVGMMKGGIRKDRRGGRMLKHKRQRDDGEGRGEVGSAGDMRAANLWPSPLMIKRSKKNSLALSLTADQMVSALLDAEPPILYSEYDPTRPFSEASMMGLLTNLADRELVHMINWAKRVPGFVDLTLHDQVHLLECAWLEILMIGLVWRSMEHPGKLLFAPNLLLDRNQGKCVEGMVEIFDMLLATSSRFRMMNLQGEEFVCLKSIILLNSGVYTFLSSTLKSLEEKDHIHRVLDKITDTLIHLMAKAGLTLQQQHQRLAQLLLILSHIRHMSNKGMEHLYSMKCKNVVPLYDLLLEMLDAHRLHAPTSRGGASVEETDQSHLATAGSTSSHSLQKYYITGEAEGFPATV

[17] = target: Induced myeloid leukemia cell differentiation protein Mcl-1 (Homo sapiens, UniProt Q07820); type: functional
[18] = target: T6, Cytochrome P450 1A2 (Homo sapiens, UniProt P05177);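 also: PubChem cytochrome P450 panel assay, CYP1A2 panel member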
T6 sequence (P05177 whole entry): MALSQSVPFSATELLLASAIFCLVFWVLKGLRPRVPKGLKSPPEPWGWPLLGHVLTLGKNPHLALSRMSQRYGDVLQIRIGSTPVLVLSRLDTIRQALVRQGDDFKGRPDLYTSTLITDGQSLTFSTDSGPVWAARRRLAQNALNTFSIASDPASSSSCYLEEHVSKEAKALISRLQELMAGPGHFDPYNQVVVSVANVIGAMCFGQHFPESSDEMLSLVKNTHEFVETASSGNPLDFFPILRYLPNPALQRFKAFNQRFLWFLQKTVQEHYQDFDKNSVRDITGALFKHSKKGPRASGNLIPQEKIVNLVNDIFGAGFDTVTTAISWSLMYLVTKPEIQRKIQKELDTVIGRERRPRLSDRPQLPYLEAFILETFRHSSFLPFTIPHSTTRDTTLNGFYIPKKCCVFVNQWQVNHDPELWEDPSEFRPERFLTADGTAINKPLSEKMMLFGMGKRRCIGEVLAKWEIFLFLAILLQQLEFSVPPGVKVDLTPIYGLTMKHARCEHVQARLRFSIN

[19] = target: Estrogen receptor beta (Homo sapiens, UniProt Q92731); test: blockers of SRC-3 recruitment to ERβ – biochemical, ELISA, streptavidin-HRP readout, orthogonal assay, confirmation (AID 1060)
[20] = target: T7, Carboxy-terminal domain RNA polymerase II polypeptide A small phosphatase 1 (Homo sapiens, UniProt Q9GZU7); test: CTDSP1 inhibitors, concentration-response, biochemical, absorbance readout, ultra-high-throughput screen actives (AID 540297); type: functional
T7 sequence (Q9GZU7 whole entry): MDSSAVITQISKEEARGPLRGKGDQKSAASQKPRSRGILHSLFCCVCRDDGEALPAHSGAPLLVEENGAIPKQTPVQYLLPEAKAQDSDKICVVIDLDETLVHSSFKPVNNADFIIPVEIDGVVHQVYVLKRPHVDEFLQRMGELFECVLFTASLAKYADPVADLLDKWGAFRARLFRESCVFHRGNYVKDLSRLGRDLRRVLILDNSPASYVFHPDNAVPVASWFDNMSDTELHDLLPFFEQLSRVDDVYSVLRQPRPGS

[21] = target: T2, Cytochrome P450 3A4; remark: listed apart in the source
[22] = target: DNA dC->dU-editing enzyme APOBEC-3A (Homo sapiens, UniProt P31941); test: Dose Response confirmation of small molecule APOBEC3A DNA Deaminase Inhibitors via a fluorescence-based single-stranded DNA deaminase assay. [Related pubchem assays (depositor defined):AID493011, AID493024]; type: functional
[23] = target: DNA dC->dU-editing enzyme APOBEC-3G (Homo sapiens, UniProt Q9HC16); type: functional;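 also: Dose-response counterscreen measuring inhibition of APOBEC3G DNA deaminase activity, run while confirming APOBEC3A inhibitors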
[24] = tested on: HeLa; test: viability loss in HeLa cells – cell-based, 24 h, cherry-picked samples, cytotoxicity control, dose response (AID 504726); type: functional; details: Homo sapiens;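 also: potency for cytotoxicity as loss of luminescence signal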
[25] = target: Beta-lactamase (Pseudomonas aeruginosa, UniProt Q79MP6);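 also: biochemical dose-response test of metallo-beta-lactamase enzyme inhibition, read out by epi-absorbance; purified recombinant IMP-1 metallo-beta-lactamase with nitrocefin as substrate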
[26] = target: ORF 73 (Human herpesvirus 8, UniProt O40947); test: KSHV LANA DNA-binding disruption – biochemical, fluorescence polarization, cherry-picked samples, dose response (AID 504725); parameters: species or system Human gammaherpesvirus 8;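 also: fluorescence polarization of a labeled DNA duplex reporting LANA DNA binding; potency is for inhibitors that block LANA binding to the DNA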
[27] = target: Beta-lactamase (Salmonella choleraesuis (strain SC-B67), UniProt Q5J463)
Sequence of Beta-lactamase (Salmonella choleraesuis (strain SC-B67), UniProt Q5J463) (Q5J463 whole entry): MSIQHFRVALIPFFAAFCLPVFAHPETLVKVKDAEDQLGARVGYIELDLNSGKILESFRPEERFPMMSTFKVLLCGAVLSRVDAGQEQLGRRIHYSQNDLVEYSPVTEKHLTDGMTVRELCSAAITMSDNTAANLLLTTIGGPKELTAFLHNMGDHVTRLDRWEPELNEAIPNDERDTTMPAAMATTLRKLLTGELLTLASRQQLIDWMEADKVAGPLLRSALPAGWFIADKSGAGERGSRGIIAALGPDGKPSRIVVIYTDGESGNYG

Sequence of Cytochrome P450 2D6 (P10635 whole entry): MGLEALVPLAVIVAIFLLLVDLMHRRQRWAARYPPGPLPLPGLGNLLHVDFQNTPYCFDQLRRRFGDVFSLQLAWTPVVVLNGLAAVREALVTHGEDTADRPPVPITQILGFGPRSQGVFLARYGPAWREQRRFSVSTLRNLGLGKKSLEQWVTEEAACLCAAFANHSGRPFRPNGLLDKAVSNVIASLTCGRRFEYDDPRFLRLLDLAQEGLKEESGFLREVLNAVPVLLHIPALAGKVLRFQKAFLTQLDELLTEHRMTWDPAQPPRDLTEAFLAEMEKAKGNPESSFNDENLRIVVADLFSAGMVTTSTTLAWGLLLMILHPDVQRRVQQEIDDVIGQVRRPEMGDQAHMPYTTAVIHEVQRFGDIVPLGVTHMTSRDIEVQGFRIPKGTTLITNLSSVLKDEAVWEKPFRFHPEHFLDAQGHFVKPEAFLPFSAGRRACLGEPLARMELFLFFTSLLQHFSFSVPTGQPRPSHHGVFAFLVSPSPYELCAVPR
T2 sequence (P08684 whole entry, the tested form may be a part): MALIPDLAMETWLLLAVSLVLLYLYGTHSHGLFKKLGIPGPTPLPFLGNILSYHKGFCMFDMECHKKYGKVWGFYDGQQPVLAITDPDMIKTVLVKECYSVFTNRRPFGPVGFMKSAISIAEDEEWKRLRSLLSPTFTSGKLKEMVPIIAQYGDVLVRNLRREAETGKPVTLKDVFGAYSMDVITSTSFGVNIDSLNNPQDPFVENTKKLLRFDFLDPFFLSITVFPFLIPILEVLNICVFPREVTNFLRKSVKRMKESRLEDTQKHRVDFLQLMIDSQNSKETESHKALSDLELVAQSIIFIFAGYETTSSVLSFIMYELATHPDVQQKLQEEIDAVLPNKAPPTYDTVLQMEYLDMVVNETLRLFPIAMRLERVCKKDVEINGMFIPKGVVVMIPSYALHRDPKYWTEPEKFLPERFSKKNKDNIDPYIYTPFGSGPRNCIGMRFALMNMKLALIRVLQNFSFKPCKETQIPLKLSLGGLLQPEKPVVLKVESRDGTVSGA
Sequence of Glucose-6-phosphate 1-dehydrogenase (P11413 whole entry): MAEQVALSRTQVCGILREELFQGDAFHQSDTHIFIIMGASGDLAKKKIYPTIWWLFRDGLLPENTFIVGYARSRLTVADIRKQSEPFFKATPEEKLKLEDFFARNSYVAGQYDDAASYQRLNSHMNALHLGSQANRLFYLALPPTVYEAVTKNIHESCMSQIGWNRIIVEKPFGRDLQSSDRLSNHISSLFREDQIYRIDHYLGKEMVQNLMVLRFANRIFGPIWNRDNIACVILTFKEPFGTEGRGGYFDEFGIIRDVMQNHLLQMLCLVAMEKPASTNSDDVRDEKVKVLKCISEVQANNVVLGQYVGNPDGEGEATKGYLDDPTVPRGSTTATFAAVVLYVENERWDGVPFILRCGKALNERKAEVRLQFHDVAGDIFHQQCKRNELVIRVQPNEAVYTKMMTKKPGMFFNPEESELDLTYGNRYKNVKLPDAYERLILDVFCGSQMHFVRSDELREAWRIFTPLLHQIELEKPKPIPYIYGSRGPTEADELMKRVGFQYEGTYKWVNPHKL
Sequence of UDP-galactopyranose mutase (P9WIQ1 whole entry): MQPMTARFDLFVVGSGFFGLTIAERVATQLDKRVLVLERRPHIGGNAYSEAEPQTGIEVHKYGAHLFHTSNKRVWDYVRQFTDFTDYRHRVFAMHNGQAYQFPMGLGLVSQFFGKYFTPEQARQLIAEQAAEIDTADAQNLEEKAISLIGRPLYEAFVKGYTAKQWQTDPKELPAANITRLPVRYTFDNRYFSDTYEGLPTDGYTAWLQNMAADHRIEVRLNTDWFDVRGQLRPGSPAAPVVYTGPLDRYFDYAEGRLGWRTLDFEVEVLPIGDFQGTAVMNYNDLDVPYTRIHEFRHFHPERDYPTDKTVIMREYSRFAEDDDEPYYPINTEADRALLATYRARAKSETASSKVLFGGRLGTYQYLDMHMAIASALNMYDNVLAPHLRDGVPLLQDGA
Sequence of DNA dC->dU-editing enzyme APOBEC-3A (P31941 whole entry): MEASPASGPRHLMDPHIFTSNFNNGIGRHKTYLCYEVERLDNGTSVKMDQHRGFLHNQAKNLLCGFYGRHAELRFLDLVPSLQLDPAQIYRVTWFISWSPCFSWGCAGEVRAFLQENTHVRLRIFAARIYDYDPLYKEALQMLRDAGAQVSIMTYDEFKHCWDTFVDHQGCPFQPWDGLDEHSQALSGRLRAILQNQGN
Sequence of DNA dC->dU-editing enzyme APOBEC-3G (Q9HC16 whole entry): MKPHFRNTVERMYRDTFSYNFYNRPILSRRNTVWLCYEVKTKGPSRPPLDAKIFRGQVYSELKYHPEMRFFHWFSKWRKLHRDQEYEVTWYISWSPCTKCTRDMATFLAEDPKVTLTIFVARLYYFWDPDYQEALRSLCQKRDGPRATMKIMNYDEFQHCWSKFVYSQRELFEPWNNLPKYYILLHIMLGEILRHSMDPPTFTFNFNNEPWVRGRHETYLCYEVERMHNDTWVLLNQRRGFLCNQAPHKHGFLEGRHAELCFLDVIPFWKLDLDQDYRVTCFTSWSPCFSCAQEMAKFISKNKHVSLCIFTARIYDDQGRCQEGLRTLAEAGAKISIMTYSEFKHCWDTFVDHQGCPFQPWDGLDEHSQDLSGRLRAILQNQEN
Sequence of Estrogen receptor beta (Q92731 whole entry, the tested form may be a part): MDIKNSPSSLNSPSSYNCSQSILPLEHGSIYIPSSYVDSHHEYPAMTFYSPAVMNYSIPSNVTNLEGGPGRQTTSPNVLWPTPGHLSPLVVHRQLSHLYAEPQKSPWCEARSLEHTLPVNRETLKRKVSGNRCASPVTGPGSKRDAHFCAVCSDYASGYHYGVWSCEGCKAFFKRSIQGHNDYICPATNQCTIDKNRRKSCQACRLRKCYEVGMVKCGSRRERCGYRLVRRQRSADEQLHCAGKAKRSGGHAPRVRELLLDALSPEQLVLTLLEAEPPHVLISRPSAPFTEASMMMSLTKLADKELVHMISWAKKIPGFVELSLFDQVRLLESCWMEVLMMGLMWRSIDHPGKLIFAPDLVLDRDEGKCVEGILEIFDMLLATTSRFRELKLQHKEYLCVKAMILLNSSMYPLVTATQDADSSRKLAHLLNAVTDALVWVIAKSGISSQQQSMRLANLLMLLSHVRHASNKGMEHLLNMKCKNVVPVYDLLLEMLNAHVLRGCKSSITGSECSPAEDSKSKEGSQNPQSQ
Sequence of Cytochrome P450 2C19 (P33261 whole entry): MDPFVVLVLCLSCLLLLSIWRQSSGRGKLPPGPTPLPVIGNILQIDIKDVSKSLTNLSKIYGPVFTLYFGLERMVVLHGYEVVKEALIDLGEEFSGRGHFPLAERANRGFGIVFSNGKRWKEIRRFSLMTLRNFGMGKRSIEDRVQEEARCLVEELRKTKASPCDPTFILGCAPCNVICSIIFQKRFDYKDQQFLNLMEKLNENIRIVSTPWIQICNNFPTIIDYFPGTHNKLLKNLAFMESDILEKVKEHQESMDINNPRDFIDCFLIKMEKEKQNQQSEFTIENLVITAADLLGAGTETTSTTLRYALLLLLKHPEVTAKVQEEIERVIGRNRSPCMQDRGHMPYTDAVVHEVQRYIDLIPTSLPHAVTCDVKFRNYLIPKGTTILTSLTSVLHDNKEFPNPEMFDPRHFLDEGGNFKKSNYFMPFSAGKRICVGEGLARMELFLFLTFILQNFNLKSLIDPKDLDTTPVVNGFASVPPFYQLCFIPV
Sequence of Beta-lactamase (Pseudomonas aeruginosa, UniProt Q79MP6) (Q79MP6 whole entry): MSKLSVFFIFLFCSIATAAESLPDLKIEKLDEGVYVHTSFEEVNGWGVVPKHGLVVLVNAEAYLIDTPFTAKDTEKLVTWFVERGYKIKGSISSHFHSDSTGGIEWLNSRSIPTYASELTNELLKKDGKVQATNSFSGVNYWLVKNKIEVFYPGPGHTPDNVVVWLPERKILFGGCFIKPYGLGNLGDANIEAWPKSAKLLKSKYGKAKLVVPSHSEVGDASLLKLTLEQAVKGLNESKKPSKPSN
Sequence of Induced myeloid leukemia cell differentiation protein Mcl-1 (Q07820 whole entry): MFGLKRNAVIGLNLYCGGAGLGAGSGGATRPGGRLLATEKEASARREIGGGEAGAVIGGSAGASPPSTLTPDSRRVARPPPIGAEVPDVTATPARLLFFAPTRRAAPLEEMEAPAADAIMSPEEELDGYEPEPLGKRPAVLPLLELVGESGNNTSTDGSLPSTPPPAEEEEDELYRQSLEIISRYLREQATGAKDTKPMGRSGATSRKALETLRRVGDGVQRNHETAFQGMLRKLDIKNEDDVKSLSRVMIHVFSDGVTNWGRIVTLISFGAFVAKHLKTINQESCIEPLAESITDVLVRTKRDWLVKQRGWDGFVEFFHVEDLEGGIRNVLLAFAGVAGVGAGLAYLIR

## COc1ccccc1N1CCN(/N=C/c2cccc(Cl)c2)CC1
[1]
  AC50: 161 µM (active)
[2]
  AC50: > 35 µM (active)
[3]
  AC50: > 35 µM (active)

## CC(=O)O.CN1CCN(CN2C(=O)C3C4C=CC(C3C2=O)C2C3C(=O)N(CN5CCN(C)CC5)C(=O)C3C42)CC1 (configuration not stated)
[4]
  AC50: inconclusive

## COc1c2ccoc2nc2c(OC)c(OC[C@@H](O)C(C)(C)O)ccc12
[5]
  AC50: 54.2 µM (active)

## C=CCSc1nc2sc3c(c2c(=O)n1CC)CCc1ccccc1-3
[6]
  IC50: 13.5 µM (active)
[7]
  IC50: > 80 µM (inactive)

## CCOC(=O)c1nnc(/N=c2\ssnc2Cl)o1
[8]
  IC50: 32.5 µM (active)

## C=C(C)CNCC(=C)C.Oc1c(Cl)c(Cl)c(Cl)c(Cl)c1Cl
[9]
  AC50: inconclusive
[4]
  AC50: inactive
[10]
  AC50: inactive

## Cc1ccc(-c2nn(C)c(=O)c3ccccc23)cc1CNC(=O)/C=C/c1ccccc1
[7]
  IC50: 49.5 µM (inactive)

## COc1ccccc1-n1c(O)cc(=O)nc1SC
[11]
  EC50: > 100 µM (inactive)

## O=C(NCc1ccc(OC(F)(F)F)cc1)c1cccc2c1C(=O)c1ccc(N3CCCCC3)cc1S2(=O)=O
[12]
  AC50: 7.54 µM (active)
[13]
  EC50: 6.58 µM (active)
[14]
  IC50: > 109 µM (inactive)
[15]
  IC50: > 83.3 µM (inactive)

## Cc1ccc(NC(=O)Nc2ccccc2)nc1
[2]
  AC50: > 35 µM (active)
[3]
  AC50: > 35 µM (active)

## O=C(Cc1ccc(S(=O)(=O)N2CCOCC2)s1)Nc1nc2c(s1)CCCC2
[16]
  IC50: 4.69 µM (active)
[17]
  IC50: 4.44 µM (active)
[18]
  AC50: 28.2 µM (inconclusive)
[19]
  IC50: 5.27 µM (not active)
[20]
  IC50: 3.2 µM (active)
[21]
  AC50: 14.1 µM (inconclusive)
[22]
  IC50: 10.5 µM (active)
[23]
  IC50: 33.7 µM (active)

## Cc1nn(C)c(C)c1N1C(=O)c2cccc3c(N)ccc(c23)C1=O
[24]
  AC50: 264 µM (active)
[12]
  AC50: 1.39 µM (active)
[25]
  IC50: 9.3 µM (active)
[26]
  AC50: 0.81 µM (active)
[27]
  IC50: 5.25 µM (active)
